Converted amounts (≈) assume the structure as drawn. Where two headings read alike, the source gives them in different places.
Tests used:
[1] = acute toxicity by intravenous injection in mice; conditions: mouse, in vivo
[2] = tested on: Staphylococcus aureus Ap 01; assay: MIC, serial dilution on nutrient agar; format: cell-based
Experimental: (§1) For comparison purpose, the minimum inhibitory concentrations (MIC.) of 1-N-(L-4-amino-2-hydroxybutyryl)-kanamycin A, namely amikacin and of 2',3'-dideoxykanamycin A (abbreviated as DKA) are also shown in Table 1.
(§2) The minimum inhibitory concentrations (mcg/ml) of these kanamycin A derivatives against the various bacteria were determined according to a standard serial dilution method on a nutrient agar medium at 37° C., the estimation being made after 18 hours incubation.

[3] = tested on: Serratia marcescens I-0162; assay: MIC, serial dilution on nutrient agar; format: cell-based
Experimental: as §1, §2

[4] = tested on: Serratia marcescens I-0115; assay: MIC, serial dilution on nutrient agar; format: cell-based
Experimental: as §1, §2

Escherichia coli ML 1629 = assay: MIC, serial dilution on nutrient agar; format: cell-based
Experimental: as §1, §2

Escherichia coli ML R 81 = assay: MIC, serial dilution on nutrient agar; format: cell-based
Experimental: as §1, §2

[5] = tested on: Staphylococcus aureus 209P; assay: MIC, serial dilution on nutrient agar; format: cell-based; conditions: S. aureus 209P, 37° C., 18 hours
Experimental: as §1, §2

Serratia sp. 4 = assay: MIC, serial dilution on nutrient agar; format: cell-based; conditions: 37° C., 18 hours
Experimental: as §1, §2

[6] = tested on: Pseudomonas aeruginosa H9; assay: MIC, serial dilution on nutrient agar; format: cell-based
Experimental: as §1, §2

[7] = tested on: Bacillus subtilis PCI 219; assay: MIC, serial dilution on nutrient agar; format: cell-based; conditions: PCI219, B. subtilis PCI 219, 37° C., 18 hours
Experimental: as §1, §2

[8] = tested on: Pseudomonas aeruginosa A3; assay: MIC, serial dilution on nutrient agar; format: cell-based; conditions: P. aeruginosa A3, 37° C., 18 hours
Experimental: as §1, §2

[9] = tested on: Pseudomonas aeruginosa B-13; assay: MIC, serial dilution on nutrient agar; format: cell-based
Experimental: as §1, §2

Proteus rettgeri GN 311 = assay: MIC, serial dilution on nutrient agar; format: cell-based; conditions: Providencia rettgeri, GN311, 37° C., 18 hours
Experimental: as §1, §2

[10] = tested on: Serratia marcescens I-0111; assay: MIC, serial dilution on nutrient agar; format: cell-based
Experimental: as §1, §2

[11] = tested on: Serratia marcescens I-0139; assay: MIC, serial dilution on nutrient agar; format: cell-based; conditions: I0139, S. marcescens I-0139, 37° C., 18 hours
Experimental: as §1, §2

[12] = tested on: Pseudomonas aeruginosa K-Ps 102; assay: MIC, serial dilution on nutrient agar; format: cell-based
Experimental: as §1, §2

Escherichia coli ML 1630 = assay: MIC, serial dilution on nutrient agar; format: cell-based; conditions: ML1630, E. coli ML 1630, 37° C., 18 hours
Experimental: as §1, §2

Escherichia coli J5R11-2 = assay: microbe, parasite or virus in culture; conditions: J5R112, 18 h
Experimental: as §1, §2

[13] = AP01, S. aureus Ap 01, nutrient agar, 37° C., 18 hours, read-out: MIC.
[14] = ML1629, E. coli ML 1629, nutrient agar, 37° C., 18 hours, read-out: MIC.
[15] = MLR81, E. coli ML R 81, nutrient agar, 37° C., 18 hours, read-out: MIC.
[16] = P. aeruginosa H9, nutrient agar, 37° C., 18 hours, read-out: MIC.
[17] = I0115, S. marcescens I-0115, nutrient agar, 37° C., 18 hours, read-out: MIC.
[18] = I0111, S. marcescens I-0111, nutrient agar, 37° C., 18 hours, read-out: MIC.

SMILES | LD50 [1] | MIC [2, 13] | MIC ([3]; I0162, 18 h) | MIC (Escherichia coli ML 1629; [14]) | MIC (Escherichia coli ML R 81; [15]) | MIC [5] | MIC (Serratia sp. 4) | MIC [6, 16] | MIC [7] | MIC [8] | MIC ([9]; B13, 18 h) | MIC (Proteus rettgeri GN 311) | MIC [11] | MIC ([12]; KPS102, 18 h) | MIC (Escherichia coli ML 1630) | MIC (Escherichia coli J5R11-2) | MIC [4, 17] | MIC [10, 18] | further results
NCC[C@H](O)C(=O)N[C@@H]1C[C@H](N)[C@@H](O[C@@H]2CC[C@H](O)[C@@H](CN)O2)[C@H](O)[C@H]1O[C@H]1O[C@H](CO)[C@@H](O)[C@H](N)[C@H]1O [AHDK] | 326 mg/kg | 0.39 µg/mL (≈ 0.704 µM) | 6.25 µg/mL (≈ 11.3 µM) | 1.56 µg/mL (≈ 2.82 µM) | 1.56 µg/mL (≈ 2.82 µM) | 0.1 µg/mL (≈ 0.181 µM) | 1.56 µg/mL (≈ 2.82 µM) | 3.13 µg/mL (≈ 5.65 µM) | 0.2 µg/mL (≈ 0.361 µM) | 0.78 µg/mL (≈ 1.41 µM) | 12.5 µg/mL (≈ 22.6 µM) | 0.39 µg/mL (≈ 0.704 µM) | 12.5 µg/mL (≈ 22.6 µM) | 6.25 µg/mL (≈ 11.3 µM) | 1.56 µg/mL (≈ 2.82 µM) | 0.78 µg/mL (≈ 1.41 µM) | – | – | MIC ([4]; I0115, 18 h): 6.25 µg/mL (≈ 11.3 µM); MIC ([10]; I0111, 18 h): 6.25 µg/mL (≈ 11.3 µM)
NCC[C@H](O)C(=O)N[C@@H]1C[C@H](N)[C@@H](O[C@H]2O[C@H](CN)[C@@H](O)[C@H](O)[C@H]2O)[C@H](O)[C@H]1O[C@H]1O[C@H](CO)[C@@H](O)[C@H](N)[C@H]1O [Amikacin, 1-N-(L-4-amino-2-hydroxybutyryl)-kanamycin A, reference compound] | – | – | – | – | – | 0.78 µg/mL (≈ 1.33 µM) | 3.13 µg/mL (≈ 5.34 µM) | 6.25 µg/mL (≈ 10.7 µM) | 0.39 µg/mL (≈ 0.666 µM) | < 0.2 µg/mL | – | 0.39 µg/mL (≈ 0.666 µM) | 100 µg/mL (≈ 171 µM) | – | 3.13 µg/mL (≈ 5.34 µM) | 1.56 µg/mL (≈ 2.66 µM) | 50 µg/mL (≈ 85.4 µM) | 25 µg/mL (≈ 42.7 µM) | MIC ([2]; AP01, 18 h): 1.56 µg/mL (≈ 2.66 µM); MIC ([3]; I0162, S. marcescens I-0162, nutrient agar, 37° C., 18 hours, read-out: MIC.): 50 µg/mL (≈ 85.4 µM); MIC (Escherichia coli ML 1629; ML1629, 18 h): 1.56 µg/mL (≈ 2.66 µM); MIC (Escherichia coli ML R 81; MLR81, 18 h): 1.56 µg/mL (≈ 2.66 µM); MIC ([9]; B13, P. aeruginosa B-13, nutrient agar, 37° C., 18 hours, read-out: MIC.): 6.25 µg/mL (≈ 10.7 µM); MIC ([12]; KPS102, P. aeruginosa K-Ps 102, nutrient agar, 37° C., 18 hours, read-out: MIC.): 6.25 µg/mL (≈ 10.7 µM)
NC[C@H]1O[C@H](O[C@H]2[C@H](O)[C@@H](O[C@H]3O[C@H](CO)[C@@H](O)[C@H](N)[C@H]3O)[C@H](N)C[C@@H]2N)CC[C@@H]1O [DKA, 2',3'-dideoxykanamycin A] | – | 3.13 µg/mL (≈ 6.92 µM) | – | 1.56 µg/mL (≈ 3.45 µM) | 3.13 µg/mL (≈ 6.92 µM) | 1.56 µg/mL (≈ 3.45 µM) | – | – | 0.39 µg/mL (≈ 0.862 µM) | 1.56 µg/mL (≈ 3.45 µM) | 12.5 µg/mL (≈ 27.6 µM) | – | – | 6.25 µg/mL (≈ 13.8 µM) | 3.13 µg/mL (≈ 6.92 µM) | 3.12 µg/mL (≈ 6.89 µM) | – | – | MIC ([6]; H9, 18 h): 6.25 µg/mL (≈ 13.8 µM)
NC[C@H](O)C(=O)N[C@@H]1C[C@H](N)[C@@H](O[C@@H]2CC[C@H](O)[C@@H](CN)O2)[C@H](O)[C@H]1O[C@H]1O[C@H](CO)[C@@H](O)[C@H](N)[C@H]1O [ISDK, 1-N-(L-3-amino-2-hydroxy-propionyl)-2',3'-dideoxykanamycin A] | 240 mg/kg | 0.78 µg/mL (≈ 1.45 µM) | 6.25 µg/mL (≈ 11.6 µM) | 1.56 µg/mL (≈ 2.89 µM) | 1.56 µg/mL (≈ 2.89 µM) | 0.2 µg/mL (≈ 0.371 µM) | 1.56 µg/mL (≈ 2.89 µM) | 3.13 µg/mL (≈ 5.8 µM) | 0.39 µg/mL (≈ 0.723 µM) | 0.78 µg/mL (≈ 1.45 µM) | 12.5 µg/mL (≈ 23.2 µM) | 0.39 µg/mL (≈ 0.723 µM) | 6.25 µg/mL (≈ 11.6 µM) | 6.25 µg/mL (≈ 11.6 µM) | 3.13 µg/mL (≈ 5.8 µM) | 0.78 µg/mL (≈ 1.45 µM) | 3.13 µg/mL (≈ 5.8 µM) | 3.13 µg/mL (≈ 5.8 µM) | –
